Experimental data from patent US9884806B2, “Cyclic vinylogous amides as bromodomain inhibitors” (ICAHN SCHOOL OF MEDICINE AT MOUNT SINAI, priority 2013, dated 2018).

Assays:
BRD4_2 = molecular target: T1, BRD4_2 (Homo sapiens, UniProt O60885); assay: Fluorescence anisotropy binding assay (competition with FITC-labeled MS417 probe), BRD4_2; details: FITC-MS417 probe 80 nM, PBS pH 7.4, 1 hour, 25° C.
T1 construct: contains two tandem bromodomains (BrD1 and BrD2)

[1] = molecular target: T2, first bromodomain (BrD1) of human BRD4 (Homo sapiens, UniProt O60885); assay: Fluorescence anisotropy binding assay (competition with FITC-labeled MS417 probe); details: FITC-MS417 probe 80 nM, PBS pH 7.4, 1 hour, 25° C., read-out: BRD4_1 IC50
T2 construct: the first bromodomain (BrD1) of human BRD4; poly-His (cleaved yes); made in house
Procedure, shortened: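 Competitive fluorescence anisotropy in PBS pH 7.4: 80 nM FITC-MS417 probe, 0.25 to 1 μM tag-cleaved BrD1, titrated unlabeled ligand, 1 hour at 25° C. IC50 values were fitted and converted to Ki using a corrected Cheng-Prusoff equation assuming one-site competition.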

| SMILES | melting point [°C] | IC50 (BRD4_2) [µM] | IC50 [1] [µM] |
| --- | --- | --- | --- |
| COc1c(NC2=C(C)C(=O)CC2)cccc1C(=O)O | 220 to 223 |  |  |
| CC1=C(Nc2ccc(NC(=O)c3ccccc3C)cc2Cl)CCCC1=O [Example 05-48, N-(3-chloro-4-((2-methyl-3-oxocyclohex-1-en-1-yl)amino)phenyl)-2-methylbenzamide] | 234 to 236 | 1 to 10 | < 1 |
| CC1=C(Nc2cc(NCc3ccccc3F)ccc2Cl)CCCC1=O [Example 05-74, 3-((2-chloro-5-((2-fluorobenzyl)amino)phenyl)amino)-2-methylcyclohex-2-enone] | 103 to 105 | < 1 | < 1 |
| COc1ccc(C(=O)Nc2ccc(Cl)c(NC3=C(C)C(=O)CC3)c2)cc1 [Example 05-37, N-(4-chloro-3-((2-methyl-3-oxocyclopent-1-en-1-yl)amino)phenyl)-4-methoxybenzamide] | 254 to 257 | > 10 | < 1 |
| CC1=C(Nc2ccncc2)CCC1=O [Example 01-30, 2-methyl-3-(pyridin-4-ylamino)cyclopent-2-enone] | 203 to 205 | 1 to 10 | 1 to 10 |
| CC1=C(Nc2ccc(C(=O)O)cc2)CCC1=O [Example 02-01, 4((2-methyl-3-oxocyclopent-1-en-1-yl)amino)benzoic acid] | 228 to 230 |  |  |
| CC1=C(Nc2ccc(NS(=O)(=O)c3ccccc3C)cc2Cl)CCC1=O [Example 05-63, N-(3-chloro-4-((2-methyl-3-oxocyclopent-1-en-1-yl)amino)phenyl)-2-methylbenzenesulfonamide] | 215 to 218 | 1 to 10 | < 1 |
| CC1=C(Nc2cc(NCCc3ccccc3C)ccc2Cl)CCCC1=O [Example 05-73, 3-((2-chloro-5-((2-methylphenethyl)amino)phenyl)amino)-2-methylcyclohex-2-enone] | 85 to 87 | 1 to 10 | 1 to 10 |
| CC1=C(Nc2cccc(NCc3ccccc3C)c2Cl)CCCC1=O [Example 05-78, 3-((2-chloro-3-((2-methylbenzyl)amino)phenyl)amino)-2-methylcyclohex-2-enone] | 132 to 135 | 1 to 10 | < 1 |
| CC1=C(Nc2cc(NS(=O)(=O)C3CCCCC3)ccc2Cl)CCC1=O [Example 05-55, N-(4-chloro-3-((2-methyl-3-oxocyclopent-1-en-1-yl)amino)phenyl)-cyclohexanesulfonamide] | 158 to 160 | 1 to 10 | < 1 |
| CC1=C(Nc2cccnc2)CCC1=O [Example 01-29, 2-methyl-3-(pyridin-3-ylamino)cyclopent-2-enone] | 133 to 135 | > 10 | > 10 |
| CC1=C(Nc2ccc(NS(=O)(=O)C3CCCCC3)cc2Cl)CCC1=O [Example 05-64, N-(3-chloro-4-((2-methyl-3-oxocyclopent-1-en-1-yl)amino)phenyl)-cyclohexanesulfonamide] | 210 to 213 | 1 to 10 | < 1 |
| CC1=C(Nc2ccc(C(=O)O)cc2I)CCC1=O [Example 02-08, 3-iodo-4-((2-methyl-3-oxocyclopent-1-en-1-yl)amino)benzoic acid] | 263 to 264 |  |  |
| CC1=C(Nc2ccc(S(N)(=O)=O)cc2)CCC1=O (hydrate or solvate) [Example 01-06, 4-((2-methyl-3-oxocyclopent-1-en-1-yl)amino)benzenesulfonamide] | 245 to 247 |  |  |
| CC1=C(Nc2ccccc2C(=O)O)CCC1=O [Example 02-04, 2-((2-methyl-3-oxocyclopent-1-en-1-yl)amino)benzoic acid] | 245 to 248 |  |  |
| CC1=C(Nc2ccc(S(=O)(=O)Nc3ccccn3)cc2)CCC1=O (hydrate or solvate) [Example 01-31, 4-((2-methyl-3-oxocyclopent-1-en-1-yl)amino)-N-(pyridin-2-yl)benzenesulfonamide] | 230 to 233 |  |  |
| CC1=C(Nc2cc(Cl)c(C(=O)O)cc2Cl)CCC1=O | 229 to 232 |  |  |
| CC(=O)Nc1ccc(Cl)c(NC2=C(C)C(=O)CCC2)c1 [Example 01-47, N-(4-chloro-3-((2-methyl-3-oxocyclohex-1-en-1-yl)amino)phenyl)-acetamide] | 234 to 236 |  |  |
| CC(=O)c1ccc(NC2=C(C)C(=O)CC2)cc1 [Example 01-09, 3-((4-acetylphenyl)amino)-2-methylcyclopent-2-enone] | 270 to 273 |  |  |
| CC1=C(Nc2ccc(C(=O)O)cc2Cl)CCC1=O [Example 02-02, 3-chloro-4((2-methyl-3-oxocyclopent-1-en-1-yl)amino)benzoic acid] | 226 to 230 |  |  |
| CC1=C(Nc2cccc(Br)c2)CCC1=O | 291 to 294 |  |  |
| COC(=O)c1cccc(NC2=C(C)C(=O)CC2)c1 [Example 01-04, methyl 3-((2-methyl-3-oxocyclopent-1-en-1-yl)amino)benzoate] | 133 to 135 |  |  |

| SMILES | melting point [°C] | IC50 (BRD4_2) [µM] | IC50 [1] [µM] |
| --- | --- | --- | --- |
| CC1=C(Nc2ccc(C(=O)O)cc2F)CCC1=O [Example 02-06, 3-fluoro-4((2-methyl-3-oxocyclopent-1-en-1-yl)amino)benzoic acid] | 210 to 213 |  |  |
| CC1=C(Nc2ccc(C#N)cc2)CCC1=O (hydrate or solvate) [Example 01-07, 4-((2-methyl-3-oxocyclopent-1-en-1-yl)amino)benzonitrile] | 204 to 206 |  |  |
| CC1=C(NC2(C(F)(F)F)C=CC(C(=O)O)=CC2)CCCC1=O (stereo not shown) | 229 to 231 |  |  |
| CC1=C(Nc2ccc(Cl)cc2C(=O)O)CCC1=O [Example 02-05, 5-chloro-2-((2-methyl-3-oxocyclopent-1-en-1-yl)amino)benzoic acid] | 242 to 245 |  |  |
| CC1=C(Nc2ccc(C(=O)O)cc2Br)CCC1=O [Example 02-07, 3-bromo-4-((2-methyl-3-oxocyclopent-1-en-1-yl)amino)benzoic acid] | 246 to 248 |  |  |
| CC1=C(Nc2ccc(CC(=O)O)cc2)CCCC1=O [Example 01-38, 2-(4((2-methyl-3-oxocyclohex-1-en-1-yl)amino)phenyl)acetic acid] | 215 to 219 |  |  |
| CC1=C(N[C@H]2CC[C@@H](C(=O)O)CC2)CCC1=O (hydrate or solvate) [Example 01-34, cis-(1S,4S)-4-((2-methyl-3-oxocyclopent-1-en-1-yl)amino)cyclohexanecarboxylic acid] | 233 to 235 |  |  |
| CC1=C(Nc2cc(C(=O)O)ccc2C(F)(F)F)CCCC1=O | 209 to 212 |  |  |
| CC1=C(Nc2cccc(S(N)(=O)=O)c2)CCC1=O (hydrate or solvate) [Example 01-45, 3((2-methyl-3-oxocyclopent-1-en-1-yl)amino)benzenesulfonamide] | 223 to 225 |  |  |
| CC1=C(NC2CCN(C(=O)OC(C)(C)C)CC2)CCC1=O (hydrate or solvate) [Example 01-32, tert-Butyl 4-((2-methyl-3-oxocyclopent-1-en-1-yl)amino)piperidine-1-carboxylate] | 189 to 191 |  |  |
| CC1=C(Nc2cc(S(N)(=O)=O)ccc2Cl)CCC1=O (hydrate or solvate) [Example 01-46, 4-chloro-3-((2-methyl-3-oxocyclopent-1-en-1-yl)amino)benzene-sulfonamide] | 223 to 225 |  |  |
| COc1cc(NC2=C(C)C(=O)CC2)ccc1C(=O)O [Example 02-03, 2-methoxy-4((2-methyl-3-oxocyclopent-1-en-1-yl)amino)benzoic acid] | 240 to 243 |  |  |
| CC1=C(N[C@H]2CC[C@H](C(=O)O)CC2)CCC1=O (hydrate or solvate) [Example 01-33, trans-(1R,4R)-4-((2-methyl-3-oxocyclopent-1-en-1-yl)amino)cyclo6hexane-carboxylic acid] | 236 to 238 |  |  |
| CC1=C(Nc2cc(C(=O)Nc3cccc(C(=O)O)c3C)ccc2Cl)CCCC1=O [Example 04-95, 3-(4-chloro-3-((2-methyl-3-oxocyclohex-1-en-1-yl)amino)benzamido)-2-methylbenzoic acid] |  | > 10 | > 10 |
| CC1=C(Nc2ccc(C(=O)NCc3ccccc3)cc2)CCC1=O [Example 03-18, N-benzyl-4-((2-methyl-3-oxocyclopent-1-en-1-yl)amino)benzamide] |  | 1 to 10 | 1 to 10 |
| CC(=O)c1ccc(NC2=C(C)C(=O)CC2)cc1 [Example 01-9] |  | > 10 | 1 to 10 |
| COc1ccc(NC(=O)c2ccc(NC3=C(C)C(=O)CC3)c(OC)c2)cc1 [Example 04-59, 3-methoxy-N-(4-methoxyphenyl)-4-((2-methyl-3-oxocyclopent-1-en-1-yl)amino)-benzamide] |  | 1 to 10 | 1 to 10 |
| COc1cc(NC2=C(C)C(=O)CC2)ccc1C(=O)O [Examples 02-3] |  | > 10 | > 10 |
| CC1=C(Nc2ccc(C(=O)Nc3cccc4ccccc34)cc2C)CCC1=O [Example 04-79, 3-methyl-4-((2-methyl-3-oxocyclopent-1-en-1-yl)amino)-N-(naphthalen-1-yl)benzamide] |  | 1 to 10 | 1 to 10 |
| COc1ccc(NC(=O)Cc2ccc(NC3=C(C)C(=O)CCC3)cc2)cc1 [Example 04-99, N-(4-methoxyphenyl)-2-(4-((2-methyl-3-oxocyclohex-1-en-1-yl)amino)phenyl)-acetamide] |  | 1 to 10 | 1 to 10 |
| CC1=C(Nc2cccc(C(=O)O)c2)CCC1=O [Example 01-03, 3((2-methyl-3-oxocyclopent-1-en-1-yl)amino)benzoic acid] | 236 to 238 |  |  |
